One assay addresses T1, Bcl-2-related protein A1 (Homo sapiens, UniProt Q16548).
T1 sequence (Q16548 whole entry): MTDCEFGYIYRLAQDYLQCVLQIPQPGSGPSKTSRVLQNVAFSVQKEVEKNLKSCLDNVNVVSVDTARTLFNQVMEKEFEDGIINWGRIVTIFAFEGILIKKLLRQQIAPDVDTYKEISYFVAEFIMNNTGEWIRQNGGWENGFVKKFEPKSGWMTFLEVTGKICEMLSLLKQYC
Briefly: inhibitors of Bim binding to Bfl-1, confirmation, biochemical, multiplexed, bead-based flow cytometry, HTS hits (AID 2080).
Conditions: not given
On the technique in general: Flow cytometry measures light scatter and fluorescence of single cells or particles in a stream.
What is called EC50 is the concentration needed to bring the measured effect to its halfway point. A higher EC50 goes with a less potent agent. On to `O=C1C(Cl)=C(N2CCN(c3ccccc3[N+](=O)[O-])CC2)C(=O)c2ccccc21`, for which the EC50 came out at 2.68 µM.
Same read-out and setting: under `O=c1[nH]c(O)c(Cc2ccc(-c3cc(Cl)ccc3[N+](=O)[O-])o2)c(=O)[nH]1` stands 0.81 µM; under `O=C(NCc1ccccc1)c1ccc2nc(-c3ccco3)c(-c3ccco3)nc2c1` [2,3-bis(furan-2-yl)-N-(phenylmethyl)quinoxaline-6-carboxamide], 8.1 µM.
The same measure, in the same setting: for `Cc1nnc(Sc2cc(NCCO)c([N+](=O)[O-])c3nonc23)s1` [2-[[7-[(5-methyl-1,3,4-thiadiazol-2-yl)thio]-4-nitro-2,1,3-benzoxadiazol-5-yl]amino]ethanol] the value was 0.82 µM.
Consider `Cc1ccc(-c2cc(-c3ccc(C)o3)nc(N)c2C#N)cc1` [2-amino-6-(5-methylfuran-2-yl)-4-(4-methylphenyl)pyridine-3-carbonitrile], for which the EC50 is 5.44 µM.
Still for that read-out and setting: for `Cc1cc(-c2cc(-c3ccc(Cl)cc3)nc(N)c2C#N)co1` [2-azanyl-6-(4-chlorophenyl)-4-(5-methylfuran-3-yl)pyridine-3-carbonitrile] the value was 4.92 µM; for `COc1ccc(N2C(=O)C(Cl)=C(Oc3cccc(OC)c3)C2=O)cc1` [3-chloro-4-(3-methoxyphenoxy)-1-(4-methoxyphenyl)-1H-pyrrole-2,5-dione], 1.06 µM.
The same measure, in the same setting: for `CNC(CC(=O)c1ccc([N+](=O)[O-])cc1)C(Cl)(Cl)Cl` (configuration not stated) [4,4,4-Trichloro-3-methylamino-1-(4-nitro-phenyl)-butan-1-one] the value was 3.97 µM.
`C=CS(=O)(=O)c1sc(Cl)c(N2CCOCC2)c1[N+](=O)[O-]` [4-(2-chloranyl-5-ethenylsulfonyl-4-nitro-thiophen-3-yl)morpholine] displayed an EC50 of 3.57 µM.
Still for that read-out and setting: under `COc1cc(/N=C2\SSNC2Cl)c(OC)cc1Cl` (configuration not stated) [4-chloro-N-(4-chloro-2,5-dimethoxyphenyl)-5-dithiazolidinimine] stands 5.78 µM.
On the same count and under the same terms, for `O=[N+]([O-])c1c(NCCCO)cc(Sc2nc3ccccc3s2)c2nonc12` [MLS000520994] the value was 0.26 µM; for `CN(CCO)c1cc(Sc2nc3ccccc3s2)c2nonc2c1[N+](=O)[O-]` [MLS000520995], 0.72 µM; for `CC(=O)OCCCNc1cc(Sc2nc3ccccc3s2)c2nonc2c1[N+](=O)[O-]` [MLS000521052], 0.17 µM.
As to `CC(=O)Nc1ccc(-n2cc(-c3ccccc3)[nH]c2=S)cc1` [MLS001001946], the response was half-maximal at 2.05 µM (EC50).
In the case of `COc1ccccc1-n1c(-c2ccccc2)c[nH]c1=S` [MLS001007615], it took 1.23 µM to reach a half-maximal effect (EC50).
In turn, `COc1ccccc1NC1=C(NC(C)=O)C(=O)c2ccccc2C1=O` [N-[3-(2-methoxyanilino)-1,4-dioxonaphthalen-2-yl]acetamide] yielded an EC50 of 1.84 µM.
Still for that read-out and setting: for `O=C(Nc1nnc(COc2ccc(Cl)cc2)s1)c1ccco1` [N-[5-[(4-chloranylphenoxy)methyl]-1,3,4-thiadiazol-2-yl]furan-2-carboxamide] the value was 3.09 µM.
Still for that read-out and setting: under `Cc1cc2nn(-c3cccc4ccccc34)nc2cc1N` [SMR000076237] stands 1.51 µM.
The same measure, in the same setting: for `S=c1[nH]cc(-c2ccccc2)n1-c1ccccc1` [SMR000196363] the value was 3 µM; for `CCN1C(=O)/C(=C\C=C2/C=CC=CN2CC)SC1=S` [SMR000225150], 2.32 µM.
`Oc1ccc(NCc2ccccc2OCc2ccccc2)cc1` [SMR000231540] yielded an EC50 of 8.06 µM.

Still in this assay, the particulars now being: inactive by the depositor's call.
Consider `Cc1ccc(-c2cc(-c3ccc(F)cc3)c(C#N)c(N)n2)o1`, for which the half-maximal effective concentration (EC50) is 20 µM.
Still for that read-out and setting: under `CCN(CC)c1ccc(NC(=O)c2ccccc2Br)cc1S(=O)(=O)Nc1ccccc1OC` stands 10.7 µM; under `O=C1C(=Cc2ccco2)NC(=S)N1c1ccccc1` [(5E)-5-(furan-2-ylmethylidene)-3-phenyl-2-sulfanylideneimidazolidin-4-one], 17.4 µM.
Same read-out and setting: for `Clc1nc(NCc2cccnc2)nc(N2CCOCC2)n1` [MLS000121154] the value was 20 µM; for `COc1ccc(CCNC(=O)c2ccc3nc(-c4ccco4)c(-c4ccco4)nc3c2)cc1OC` [N-[2-(3,4-dimethoxyphenyl)ethyl]-2,3-di-2-furylquinoxaline-6-carboxamide], 15.4 µM.
Consider `CCN(CC)c1ccc(NC(=O)c2ccccc2F)cc1S(=O)(=O)Nc1ccccc1OC` [SMR000241522], for which the 50% effective concentration (EC50) was 25.8 µM.

Source of the values: BindingDB's records for doi:10.7270/Q2HQ3XCR (Nmmlsc, 2009).
